{"source": "patent US10245270B2", "about": "“Salt of 3-[(3-{[4-(4-morpholinylmethyl)-1H-pyrrol-2-yl]methylene}-2-oxo-2,3-dihydro-1H-indol-5-yl)methyl]-1,3-thiazolidine-2,4-dione, its preparation, and formulations containing it” (LES LABORATOIRES SERVIER, priority 2013, dated 2019)", "key": {"[1]": {"test": "Solubility in water, 24 hours stirring at ambient temperature, HPLC analysis", "assay_type": "physicochemical", "settings": "for solubility at 24 h: thermodynamic from solid", "procedure": "A solution containing 140 mg of the compound obtained in Example 1 in 7 ml of water is stirred for 24 hours at ambient temperature. After filtration using an Acrodisc GJHP 0.45[…] μm, the solution is analysed by HPLC."}, "[2]": {"test": "Constant surface area (intrinsic) dissolution kinetics at pH 2", "assay_type": "physicochemical", "settings": "for dissolution kinetics: pH 2 (0.01N HCl), ambient temperature, pellets of 0.075 cm^2, 100 rpm", "procedure": "The constant surface area dissolution kinetics (or intrinsic dissolution kinetics) of the product of Example 1 were determined at ambient temperature at pH 2 (10 mL of 0.01N HCl) using a μDiss dissolution apparatus and pellets of 0.075 cm^2, prepared by compression at 90 bars, for 2 minutes at a stirring speed of 100 rpm.\nThe product of Example 1 dissolves with kinetics of 23 μg·s^−1·cm^−2+/−11%. By way of comparison, the dissolution kinetics of the corresponding hydrochloride are 1.6 μg·s^−1·cm^−2. The methanesulphonate therefore dissolves about 14 times faster than the corresponding hydrochloride."}, "cancer cells": {"system": "cancer cells", "settings": "cited from earlier work"}, "[3]": {"test": "Purity and stability under denaturing conditions (HPLC, X-ray diffractogram, DSC)", "assay_type": "physicochemical", "procedure": "The compound of formula (II) according to the invention has excellent stability over time even under denaturing conditions: at 25° C./60% relative humidity, at 25° C./90% relative humidity, at 30° C./65% relative humidity, at 40° C./75% relative humidity, or at 50° C., the compound of formula (II) is unchanged after 6 months.\nEXAMPLE 2: PURITY AND STABILITY OF 3[(3-{[4-(4-MORPHOLINYLMETHYL)-1H-PYRROL-2-YL]METHYLENE}-2-OXO-2,3-DIHYDRO-1H-INDOL-5-YL)METHYL]-1,3-THIAZOLIDINE-2,4-DIONE METHANESULPHONATE, Z ISOMER, UNDER DENATURING CONDITIONS"}, "[4]": {"settings": "After 6 months, 25° C./60% relative humidity"}, "[5]": {"settings": "After 6 months, 25° C./90% relative humidity"}, "[6]": {"settings": "After 6 months, 30° C./65% relative humidity"}, "[7]": {"settings": "After 6 months, 40° C./75% relative humidity"}}, "note": "Like-named read-outs stand apart in the source and are kept apart here.", "data": [{"smiles": "Cl.O=C1Nc2ccc(CN3C(=O)CSC3=O)cc2/C1=C/c1cc(CN2CCOCC2)c[nH]1", "note": "(single isomer, unassigned) [hydrochloride of 3-[(3-([4-{(4-morpholinylmethyl)-1H-pyrrol-2-yl]methylene}-2-oxo-2,3-dihydro-1H-indol-5-yl)methyl]-1,3-thiazolidine-2,4-dione, Z isomer, reference compound]", "values": [{"measurement": "solubility", "setting": "[1]; as the salt", "result": 4.3, "unit": "mg/mL"}, {"measurement": "solubility in terms of the base equivalent", "setting": "[1]; base equivalent", "result": 4, "unit": "mg/mL"}, {"measurement": "dissolution kinetics", "setting": "[2]", "result": 1.6, "unit": "μg·s^−1·cm^−2"}]}, {"smiles": "O=C1Nc2ccc(CN3C(=O)CSC3=O)cc2C1=Cc1cc(CN2CCOCC2)c[nH]1", "note": "[3-[(3-{[4-(4-morpholinylmethyl)-1H-pyrrol-2-yl]methylene}-2-oxo-2,3-dihydro-1H-indol-5-yl)methyl]-1,3-thiazolidine-2,4-dione]", "values": [{"measurement": "ability to inhibit the migration of cancer cells", "setting": "cancer cells", "result": "has the ability to inhibit the migration of cancer cells"}]}, {"smiles": "O=C1Nc2ccc(CN3C(=O)CSC3=O)cc2C1=Cc1cc(CN2CCOCC2)c[nH]1", "note": "[Example 1, 3-[(3-{[4-(4-MORPHOLINYLMETHYL)-1H-PYRROL-2-YL]METHYLENE}-2-OXO-2,3-DIHYDRO-1H-INDOL-5-YL)METHYL]-1,3-THIAZOLIDINE-2,4-DIONE METHANESULPHONATE, Z ISOMER]", "values": [{"measurement": "DSC (thermogram)", "setting": "[3]; [4]", "result": "unchanged"}, {"measurement": "HPLC (% Example 1)", "setting": "[3]; [4]", "result": 99.8, "unit": "%"}, {"measurement": "XR (diffractogram)", "setting": "[3]; [4]", "result": "unchanged"}, {"measurement": "DSC (thermogram)", "setting": "[3]; [5]", "result": "unchanged"}, {"measurement": "HPLC (% Example 1)", "setting": "[3]; [5]", "result": 99.8, "unit": "%"}, {"measurement": "XR (diffractogram)", "setting": "[3]; [5]", "result": "unchanged"}, {"measurement": "DSC (thermogram)", "setting": "[3]; [6]", "result": "unchanged"}, {"measurement": "HPLC (% Example 1)", "setting": "[3]; [6]", "result": 99.8, "unit": "%"}, {"measurement": "XR (diffractogram)", "setting": "[3]; [6]", "result": "unchanged"}, {"measurement": "DSC (thermogram)", "setting": "[3]; [7]", "result": "unchanged"}, {"measurement": "HPLC (% Example 1)", "setting": "[3]; [7]", "result": 99.8, "unit": "%"}, {"measurement": "XR (diffractogram)", "setting": "[3]; [7]", "result": "unchanged"}, {"measurement": "DSC (thermogram)", "setting": "[3]; After 6 months, 50° C.", "result": "unchanged"}, {"measurement": "HPLC (% Example 1)", "setting": "[3]; After 6 months, 50° C.", "result": 99.8, "unit": "%"}, {"measurement": "XR (diffractogram)", "setting": "[3]; After 6 months, 50° C.", "result": "unchanged"}, {"measurement": "HPLC (% Example 1)", "setting": "[3]; t = 0", "result": 99.8, "unit": "%"}, {"measurement": "solubility at 24 h", "setting": "[1]; as the salt, read-out: solubility", "result": 14.7, "unit": "mg/mL"}, {"measurement": "solubility at 24 h", "setting": "[1]; base equivalent, read-out: solubility in terms of the base equivalent", "result": 12.1, "unit": "mg/mL"}, {"measurement": "dissolution kinetics", "setting": "[2]", "result": 23, "unit": "μg·s^−1·cm^−2"}, {"measurement": "dissolution rate relative to the corresponding hydrochloride", "setting": "[2]; pH 2, ambient temperature", "result": "about 14 times faster"}]}, {"smiles": "CS(=O)(=O)O.O=C1Nc2ccc(CN3C(=O)CSC3=O)cc2C1=Cc1cc(CN2CCOCC2)c[nH]1", "note": "[compound of formula (II), 3-[(3-{[4-(4-morpholinylmethyl)-1H-pyrrol-2-yl]methylene}-2-oxo-2,3-dihydro-1H-indol-5-yl)methyl]-1,3-thiazolidine-2,4-dione methanesulphonate]", "values": [{"measurement": "stability over time under denaturing conditions", "setting": "[3]; after 6 months at 25° C./60% RH, 25° C./90% RH, 30° C./65% RH, 40° C./75% RH or 50° C.", "result": "unchanged"}]}]}
